From patent US8293774B2, “Optically active (R)-aryloxypropionic acid amides and herbicidal composition comprising same” (Kyung Nong Corporation, priority 2007, dated 2012) come the findings set out here.

The test system of this experiment is Barnyard grass. Description: Weed control test, 4-leaf stage plants (Test Example 1, Table 8). In kind it is in vivo, Echinoch crus-galli Beauv. var. caudata Kitagawa. The text has this: Seeds of rice, wheat, soy bean, barley, corn, common sorgum, barnyard grass, large crabgrass, creek grass, green foxtail and fall panicum were placed in sandy loam in 600 cm^2 pots and covered with soil. […], 2,000 l/ha of an emulsion obtained by diluting with water a mixture of 1 part by weight of a test compound, 5 parts by weight of acetone and 1 part by weight of an emulsifying agent (Tween 80, Junsei) was applied to the surface of the foliage of the plants. The plant damage at 10 days and 20 days after the foliage treatment was visually evaluated from the level of 1 to 100% by comparison with the untreated control: […]

Take `Cc1ccnc(NC(=O)[C@@H](C)Oc2ccc(Oc3ccc(C#N)cc3F)cc2)c1` [Example 33, (R)-2-[4-(4-cyano-2-fluorophenoxy)phenoxy]propionic acid-N-(4-methyl-2-pyridinyl)amide]: the “Plant damage (herbicidal activity), visually evaluated, Barnyard grass” value by setting is: (0.025 kg/ha) 10%; (0.05 kg/ha) 40%; (0.1 kg/ha) 100%; (0.4 kg/ha) 100%.
